We go through 14 molecules from PMC5802374 (Cell, 2018).

Values joined by “and” are separate entries in the source; they are usually repeats but may differ in a detail not shown here. Identical values can stand only once. Like-named read-outs stand apart in the source and are kept apart here.

Assay [1] addresses T1, KOP (Homo sapiens, UniProt P41145). Type of assay: cell-based.
Assay [2] has as its target T2, KOP wt (Homo sapiens, UniProt P41145). To be noted: N = 3.
Assay [3] concerns the target T3, MOP (Homo sapiens, UniProt P35372). The experiment in a line: Bias factor towards G protein in MOP. The assay is classed as cell-based. The settings on record: GTPγ[35S] vs BRET arrestin recruitment; DAMGO as reference agonist. (In general: BRET reads energy transfer from a luciferase to a nearby fluorophore.)
Assay [4] concerns the target T3, MOP. To be noted: N = 3.
Assay [5] has as its target T3, MOP. As to the kind of experiment: cAMP inhibition assay. Type of assay: cell-based. The settings on record: N = 3.
For assay [6], the target named is T1, KOP. The assay is classed as cell-based. This is another data set of the same source.
Assay [7] addresses T2, KOP wt. As to the kind of experiment: cell-based.
For assay [8], the target named is T3, MOP. The experiment in a line: cell-based.
Assay [9] has as its target T3, MOP. As to the kind of experiment: biochemical.
For assay [10], the target named is T1, KOP. As to the kind of experiment: biochemical.
In assay [11] the target is T3, MOP.
Assay [12] deals with T1, KOP.
Assay [13] has as its system KOP. As to the kind of experiment: Radioligand. Type of assay: binding, human. To be noted: agonist U69,593; KOP+Nb39 vs KOP only.
The target of assay [14] is human kappa-opioid receptor (KOP) containing C-terminal Renilla luciferase (RLuc8) (human, UniProt P41145). The experiment in a line: FRET or BRET.
human kappa-opioid receptor (KOP) containing C-terminal Renilla luciferase (RLuc8), sequence (P41145 whole entry): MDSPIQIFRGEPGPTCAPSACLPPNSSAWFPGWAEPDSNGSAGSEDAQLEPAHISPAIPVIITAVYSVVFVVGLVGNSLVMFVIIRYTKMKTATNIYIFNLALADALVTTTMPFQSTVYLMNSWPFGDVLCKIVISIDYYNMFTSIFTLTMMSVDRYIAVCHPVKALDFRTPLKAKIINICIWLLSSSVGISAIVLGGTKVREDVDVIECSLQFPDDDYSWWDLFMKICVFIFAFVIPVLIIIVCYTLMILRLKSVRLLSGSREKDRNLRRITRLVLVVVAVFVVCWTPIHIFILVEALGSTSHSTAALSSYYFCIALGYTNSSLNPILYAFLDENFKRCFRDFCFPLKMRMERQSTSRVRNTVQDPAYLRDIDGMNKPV

T1 sequence (P41145 whole entry): as above
T2 sequence (P41145 whole entry): as above
T3 sequence (P35372 whole entry): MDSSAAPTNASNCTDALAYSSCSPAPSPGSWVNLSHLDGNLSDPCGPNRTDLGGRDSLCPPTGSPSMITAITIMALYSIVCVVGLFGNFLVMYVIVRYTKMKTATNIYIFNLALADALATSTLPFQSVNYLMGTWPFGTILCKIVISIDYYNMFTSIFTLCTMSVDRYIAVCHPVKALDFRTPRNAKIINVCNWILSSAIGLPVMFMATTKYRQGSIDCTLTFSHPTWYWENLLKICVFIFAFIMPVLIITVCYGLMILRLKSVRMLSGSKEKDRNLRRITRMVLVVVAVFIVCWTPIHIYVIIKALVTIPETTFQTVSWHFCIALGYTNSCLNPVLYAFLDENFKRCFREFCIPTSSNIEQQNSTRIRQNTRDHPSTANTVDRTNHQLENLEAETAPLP

The EC50 is the concentration giving half of the maximal effect. Regarding `O=C(N[C@@H]1CC[C@@]2(O)[C@H]3Cc4ccc(O)c5c4[C@@]2(CCN3CC2CC2)[C@H]1O5)c1cccc(I)c1` [IBNtxA], at KOP [1], the “Emax Gi activation (cAMP inhibition) in KOP” value came out at 96±1. Further, the EC50 on KOP [1] (read-out: EC50 Gi activation (cAMP inhibition) in KOP) is 0.002 ± 0.001 nM; at KOP wt [2] (read-out: EC50 arrestin recruitment (Tango) in KOP wt), 0.032 ± 0.01 nM; at MOP [4] (read-out: EC50 arrestin recruitment (Tango) in MOP), 0.075 nM and 0.1 nM; on MOP [5] (read-out: EC50 Gi activation (cAMP inhibition) in MOP), 0.056 ± 0.012 nM. Also, at KOP wt [2] (Figure 5D, comparison with Y312^7.35W), the “Emax arrestin recruitment in KOP wt, Figure 5D” value was determined as 112±10. On KOP wt [2] (method: normalized to % SalA stimulation), the “Emax arrestin recruitment (Tango) in KOP wt” value is 95±8 and 113±12. Further, the “Bias factor towards G protein in MOP, 10^ΔΔLog(τ/KA)” value on MOP [3] is recorded as 9. Moreover, the “Emax arrestin recruitment (Tango) in MOP” value on MOP [4] was 25±6 and 23±4. Also, the “Emax Gi activation (cAMP inhibition) in MOP” value at MOP [5] is given as 99±6.

Consider `CC(C)[C@@H](CN1CC[C@@](C)(c2cccc(O)c2)[C@@H](C)C1)NC(=O)[C@H]1Cc2ccc(O)cc2CN1` [JDTic], for which the “Nb39 recruitment to KOP (in words)” value on KOP [6] is reported as “no effect”.

A word on the Emax: it is the greatest response seen or fitted, relative to the assay's reference. Consider `C=CCN1CC[C@]23c4c5ccc(O)c4OC2[C@H](NC(=O)c2ccc(F)c(I)c2)CC[C@@]3(O)C1C5` (stereo partly drawn) [MP903, N-((4aS,7R,12bS)-3-allyl-4a,9-dihydroxy-2,3,4,4a,5,6,7,7a-octahydro-1H-4,12-methanobenzofuro[3,2-e]isoquinolin-7-yl)-4-fluoro-3-iodobenzamide], for which the figures for the concentration for a half-maximal effect (EC50) on KOP wt [7] and on MOP [8] were 0.074 ± 0.012 nM and 0.12 ± 0.05 nM, respectively. Besides, the maximal response (Emax) was 108 ± 10% at KOP wt [7] (read-out: Emax arrestin recruitment (Tango) in KOP wt) and 33 ± 5% on MOP [8] (read-out: Emax arrestin recruitment (Tango) in MOP).

One may read the Ki as the equilibrium dissociation constant of an inhibitor or competing ligand from its target. Read a low Ki as higher affinity. For the molecule `O=C(N[C@@H]1C=CC2C3Cc4ccc(O)c5c4[C@@]2(CCN3CC2CC2)C1O5)c1ccccc1` (stereo partly drawn) [MP1108, N-((7R,12bS)-3-(cyclopropylmethyl)-9-hydroxy-2,3,4,4a,7,7a-hexahydro-1H-4,12-methanobenzofuro[3,2-e]isoquinolin-7-yl)benzamide], the inhibition constant Ki was found to be 0.42 ± 0.06 nM at MOP [9] and 0.42 ± 0.05 nM on KOP [10].

Turning to `O=C(N[C@@H]1C=CC2C3Cc4ccc(O)c5c4[C@@]2(CCN3CC2CC2)C1O5)c1cccc(Cl)c1` (stereo partly drawn) [MP1109, 3-Chloro-N-((7R,12bS)-3-(cyclopropylmethyl)-9-hydroxy-2,3,4,4a,7,7a-hexahydro-1H-4,12-methanobenzofuro[3,2-e]isoquinolin-7-yl)benzamide], the inhibition constant Ki on MOP [9] turned out to be 0.16 ± 0.05 nM; at KOP [10], 0.13 ± 0.03 nM.

With `O=C(N[C@@H]1C=CC2C3Cc4ccc(O)c5c4[C@@]2(CCN3CC2CC2)C1O5)c1cccc(Br)c1` (stereo partly drawn) [MP1110, 3-Bromo-N-((7R,12bS)-3-(cyclopropylmethyl)-9-hydroxy-2,3,4,4a,7,7a-hexahydro-1H-4,12-methanobenzofuro[3,2-e]isoquinolin-7-yl)benzamide], the Ki at MOP [9] stood at 0.18 ± 0.04 nM; at KOP [10], 0.12 ± 0.04 nM.

On to `O=C(N[C@@H]1C=CC2C3Cc4ccc(O)c5c4[C@@]2(CCN3CC2CC2)C1O5)c1ccccc1I` (stereo partly drawn) [MP1111, N-((7R,12bS)-3-(cyclopropylmethyl)-9-hydroxy-2,3,4,4a,7,7a-hexahydro-1H-4,12-methanobenzofuro[3,2-e]isoquinolin-7-yl)-2-iodobenzamide], for which the values for the inhibition constant (Ki) at MOP [9] and on KOP [10] were 0.2 ± 0.05 nM and 0.27 ± 0.06 nM, respectively.

Regarding `O=C(N[C@@H]1C=CC2C3Cc4ccc(O)c5c4[C@@]2(CCN3CC2CC2)C1O5)c1ccc(I)cc1` (stereo partly drawn) [MP1112, N-((7R,12bS)-3-(cyclopropylmethyl)-9-hydroxy-2,3,4,4a,7,7a-hexahydro-1H-4,12-methanobenzofuro[3,2-e]isoquinolin-7-yl)-4-iodobenzamide], the results for the inhibition constant (Ki) on MOP [9] and at KOP [10] were 0.17 ± 0.03 nM and 0.12 ± 0.03 nM, respectively.

With `O=C(N[C@@H]1C=CC2C3Cc4ccc(O)c5c4[C@@]2(CCN3CC2CC2)C1O5)c1cccc(C(F)(F)F)c1` (stereo partly drawn) [MP1113, N-((7R,12bS)-3-(cyclopropylmethyl)-9-hydroxy-2,3,4,4a,7,7a-hexahydro-1H-4,12-methanobenzofuro[3,2-e]isoquinolin-7-yl)-3-(trifluoromethyl)benzamide], the Ki at MOP [9] was determined as 0.24 ± 0.06 nM; at KOP [10], 0.14 ± 0.07 nM.

Take `O=C(N[C@@H]1C=CC2C3Cc4ccc(O)c5c4[C@@]2(CCN3CC2CC2)C1O5)c1cccc(F)c1` (stereo partly drawn) [MP1114, N-((7R,12bS)-3-(cyclopropylmethyl)-9-hydroxy-2,3,4,4a,7,7a-hexahydro-1H-4,12-methanobenzofuro[3,2-e]isoquinolin-7-yl)-3-fluorobenzamide]: the Ki at MOP [9] came to 0.27 ± 0.08 nM; on KOP [10] it was 0.16 ± 0.07 nM.

As for `Cc1cccc(C(=O)N[C@@H]2C=CC3C4Cc5ccc(O)c6c5[C@@]3(CCN4CC3CC3)C2O6)c1` (stereo partly drawn) [MP1115, N-((7R,12bS)-3-(cyclopropylmethyl)-9-hydroxy-2,3,4,4a,7,7a-hexahydro-1H-4,12-methanobenzofuro[3,2-e]isoquinolin-7-yl)-3-methylbenzamide], the inhibition constant Ki on MOP [9] worked out at 0.25 ± 0.06 nM; at KOP [10], 0.18 ± 0.08 nM.

At MOP [9], `CN(C(=O)/C=C/c1ccoc1)[C@@H]1CC[C@@]2(O)[C@H]3Cc4ccc(O)c5c4[C@@]2(CCN3CC2CC2)[C@H]1O5` [Nalfurafine, reference compound] had a Ki of 4.2 ± 0.21 nM.

In the case of `CN(C(=O)/C=C/c1ccoc1)[C@@H]1CC[C@@]2(O)[C@H]3Cc4cccc5c4[C@@]2(CCN3CC2CC2)[C@H]1O5` [compound 18], the values for the Ki on MOP [11] and on KOP [12] were 533 ± 65 nM and 1.5 ± 0.05 nM, respectively.

B1: Nb39 containing a C-terminal YFP (VHH)
VHH: QVQLVESGGGLVRPGGSLRLSCVDSERTSYPMGWFRRAPGKEREFVASITWSGIDPTYADSVADRFTTSRDVANNTLYLQMNSLKHEDTAVYYCAARAPVGQSSSPYDYDYWGQGTQVTVSS
Turning to B1, in the assay on KOP [13], the “Attenuation of agonist dissociation rate at KOP” value was “approximately 6 fold”. In addition, in [14], the “EC50 of the agonist MP1104 for recruitment of Nb39 to KOP (BRET)” value amounted to 0.12 ± 0.02 nM; the “EC50 of the agonist SalA for recruitment of Nb39 to KOP (BRET)” value is 11.3 nM and 11.2 nM and 10.2 nM; the “EC50 of the agonist U69,593 for recruitment of Nb39 to KOP (BRET)” value stood at 3.78 ± 0.04 nM; the “EC50 of the partial agonist diprenorphine for recruitment of Nb39 to KOP (BRET)” value amounted to 5.2 ± 0.03 nM.
